Here are results for one molecule from paper PMC5495782, “Designed α-sheet peptides suppress amyloid formation in Staphylococcus aureus biofilms” (NPJ Biofilms and Microbiomes, 2017).

For data set [1], the system named is S. aureus SH1000 WT biofilm PSM amyloid fibrils. Kind of data set: TEM of biofilms for extracellular fibril deposits. In kind it is cell-based, Staphylococcus aureus SH1000 WT. Conditions: 80 μM AP90, biofilms grown 24 h. As to the method:
To further investigate the ability of designed peptides to inhibit PSM amyloid formation, fluorescent (mCherry) S. aureus MN8 biofilms were grown in culture plates with glass bottom wells with or without α-sheet inhibitors. After 24 h at 37 °C the biofilms were gently rinsed with pipetted saline to remove unattached biomass and the remaining attached cells were fixed and imaged. A robust biofilm formed on the glass at the bottom of each well in LB medium alone (Fig. 2a); in contrast, there was significant disruption of the biofilm in the presence of the α-sheet compounds. […] Quantification of the images is presented in Supplementary Fig. S2. […] Addition of anti-α-sheet peptides triggered a significant reduction in PSM amyloid formation as measured by ThT fluorescence, which presumably weakened the S. aureus biofilms and their attachments by reducing the PSM amyloid fibril content of the EM. […]
Fig. 2 S. aureus biofilm structures become less robust when grown in the presence of designed peptide inhibitors. a S. aureus MN8 + mCherry biofilms were grown on glass substrates for 24 h and then cells were washed and fixed. […] For quantification of the images see Supplementary Fig. S2. b In S. aureus SH1000 WT biofilms grown in regular LB medium, PSM amyloid fibrils were visible as deposits in spaces between cells (left).
Images were analyzed using Gwyddion software (Czech Metrology Institute).

Data set [2] concerns the target T1, PSMα1 (Staphylococcus aureus, UniProt A9JX05).
T1 construct: synthetic PSMα1 (f[…], where f denotes formylation, Ontores Biotechnologies); purchased Ontores Biotechnologies; host or cells: chemical synthesis
In kind it is binding. Particulars: fresh (0 h), pre-incubated (48 h) and fibrillar (165 h) PSMα1; 2 h, 25 °C; GndHCl elution; NanoOrange fluorescence; six samples.
Procedure: To further probe the interactions between PSMα1 and the designed α-sheet peptides, we immobilized AP90 on agarose beads and applied solutions of either (a) fresh (completely solubilized), (b) pre-incubated, (allowed to aggregate as in Fig. 6a for 48 h corresponding to α-sheet oligomer species) or (c) fibrillar PSMα1. The bead mixtures were contained within a micro-spin column, so the system was treated as a packed bed reactor and a series of phosphate buffered saline (PBS) washes was used to remove unbound material. The PSMα1 content of each wash was measured with a fluorescence-based assay. PSMα1 bound to immobilized AP90 was eluted with high guanidinium hydrochloride (GndHCl).
Meanwhile, PSMα1 samples were prepared as above (see “PSM fibrillization assay”) and incubated at 37 °C. […] FT and the washes (W1-W7) were analyzed with the NanoOrange® Protein Quantitation Kit (Thermo Fisher Scientific). […] This approach was necessary because elution of bound PSMα1 with GndHCl obscures protein quantification, and unfortunately, the inability to quantify the GndHCl bound fractions prevents confirmation of the mass balance. […]
were alternated with PBS washes (W8-W13). All eluents were then analyzed with the
NanoOrange® Protein Quantitation Kit and fluorescence was used as an indicator of
PSMα1 content in each eluent. Fluorescence measurements were normalized by the […]

Data set [3] deals with S. aureus MN8 biofilm amyloid. Description: ThT fluorescence assay of amyloid in MN8 biofilms. The data set is classed as cell-based, Staphylococcus aureus MN8. Conditions: 24 h. Here is the method: (§1) Fig. 1 Screening of designed peptides for inhibition of amyloid formation in S. aureus biofilms. a Schematic of protocol for testing designed α-sheet peptides in S. aureus biofilm cultures with an illustration of the main-chain structure of the AP90 α-sheet design. b A panel of designed α-sheet peptides (AP90, AP401, and AP407), as well as random coil (RC) and β-hairpin controls (β), was tested against two S. aureus strains, MN8 (hashed bars) and SH1000 WT (white bars). […] Error bars in b and c represent the standard error of the mean for experiments performed in triplicate […]
(§2) ThT, an established fluorescent label for amyloid fibrils,[43] was then added to each well at a concentration of 22 μM and biofilms were incubated statically for 4 h at room temperature. […] Plates were shaken at high speed for 1 min on a plate shaker to detach any remaining biofilm material and homogenize the samples, which were then transferred to a 96-well black-walled plate (Corning, TC-treated polystyrene) and ThT fluorescence was measured using an excitation wavelength of 438 nm and emission at 495 nm on a Perkin–Elmer Enspire plate reader (hereafter referred to as the plate reader). Fluorescence measurements were corrected by subtracting the background intensity of identical samples without ThT (in the case of the biofilms) or PSMα1 (for the in vitro measurements). […]

For data set [4] the following is noted: ref [25]; cited from earlier work. The source says:
In addition, the structural properties of the peptide provide a benchmark, or spectroscopic signature, for α-sheet structure, which can be used to interpret spectra of amyloid species. The main α-sheet design used here is AP90 (Alternating Peptide #90, referred to as α1 previously, [26]), but we also tested several other designs (Supp ...

The subject of data set [5] is synthetic PSMα1. Description: PSMα1 fibrillization assay with added inhibitors (ThT), water. The data set is classed as biochemical, Staphylococcus aureus. Particulars: 30 μM PSMα1, inhibitor at 4:1 molar ratio, 0.34% v/v DMSO in ddH2O, pH 5, 37 °C, ThT 22 μM; SEM of 3–6 replicates; vs peptide-free control. The source says:
(§3) Two different solvent conditions were used (0.34% DMSO in water, blue bars; LB medium + 0.34% DMSO, red bars) and aggregation was monitored by ThT fluorescence. Inhibition values for each peptide are reported as a percentage of the peptide-free control samples (0% inhibition). […] Fluorescence values in NaCl solution were quite high, so its curve is shown as an inset.

Data set [6] deals with S. aureus biofilm. Kind of data set: Crystal Violet staining of S. aureus biofilm (24 h batch growth). The data set is classed as cell-based, Staphylococcus aureus. Conditions: 24 h batch growth in microtiter plates; 0.5% w/v Crystal Violet, absorbance at 550 nm; strain not stated; peptide 80 μM unless otherwise noted. As to the method: We employed two S. aureus strains—SH1000 WT, a rsbU ^+ laboratory strain,[27] and MN8, a clinical strain isolated from the human urogenital tract[28] (Supplementary Table S2). First we confirmed that the cells formed biofilms by batch growth of the bacteria in microtiter plates through staining with Crystal Violet dye after 24 h. Application of our AP90 α-sheet design led to a 54% reduction in biofilm. As crystal violet is a crude measure of the extent of biofilm formation, we assessed amyloid fibril formation in the biofilms by adapting the conventional Thioflavin T (ThT) amyloid fibril assay for use in live cells. After 24 h of batch growth in microtiter plates, the biofilms were washed and incubated with ThT, and the resulting fluorescence signals served as a proxy for the extent of fibril formation in the EM (Fig. 1a). Next, we utilized this assay to test the α-sheet inhibitor designs and control peptides described above (sequences provided in Supplementary Table S1). […]
ThT, an established fluorescent label for amyloid fibrils,[43] was then added to each well at a concentration of 22 μM and biofilms were incubated statically for 4 h at room temperature. […] Fluorescence measurements were corrected by subtracting the background intensity of identical samples without ThT (in the case of the biofilms) or PSMα1 (for the in vitro measurements). […]

Data set [7] has as its system synthetic PSMα1. Kind of data set: PSMα1 fibrillization assay with added inhibitors (ThT), LB medium. Conditions: LB medium + 0.34% DMSO, 37 °C. The data set is classed as biochemical, Staphylococcus aureus.
From the text: as §3

A short description of data set [8]: CD spectroscopy of designed and control peptides. The data set is classed as physicochemical. Particulars: 100 µM (RC 30 µM), phosphate buffer (β and AP193: acetate buffer), room temperature.
Procedure: AP407 is a variant of AP90 with a disulfide bond. […] An unstructured random coil peptide (RC) and a β-sheet hairpin (β) are used as structural controls.[25], [26]
CD spectra of RC, β, AP90, AP401, AP407, and AP193. Peptides were
dissolved to a concentration of 100 µM (except for RC, which was 30 µM) in phosphate
buffer (except for β and AP193, which were in acetate buffer) and spectra were
acquired at room temperature. […] MRE = mean residue ellipticity.
Data set [9] deals with S. aureus SH1000 WT biofilm amyloid. Description: ThT fluorescence assay of amyloid in SH1000 WT biofilms. Particulars: 80 μM peptide, 24 h, 37 °C. The data set is classed as cell-based, Staphylococcus aureus SH1000 WT. As to the method:
as §1, §2

Data set [10] concerns the target T1, PSMα1. Description: Biolayer interferometry, AP90 on sensor tip, PSMα1 in solution. The data set is classed as binding. Particulars: PSMα1 α-sheet-rich (~48 h) vs α-helix-rich (~0 h) or β-sheet-rich (~150 h). As to the method:
The binding was explored further using biolayer interferometry, which analyzes interference patterns based on adsorption of samples to a biosensor tip.
All biolayer interferometry experiments were performed on a BLItz biosensor system (ForteBio, Pall) using aminopropylsilane (APS) sensors. Sensors were hydrated in ddH2O + 22 μM ThT for 10 min prior to use; ThT was included to mirror the conditions of the corresponding aggregation curves.
In general terms: In BLI a coated tip is dipped into the sample, and binding shifts an interference pattern.

Molecules are shown by their SMILES. “Also recorded” adds a separate entry of the source. Where a SMILES comes first, the peptide text is derived from it. [ ]: non-standard residue; d: D form.

T1 sequence (A9JX05 whole entry, looked up): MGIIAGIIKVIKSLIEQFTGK

With `CSCC[C@H](NC(=O)[C@@H](CCCCN)NC(=O)[C@H](CC(C)C)NC(=O)[C@@H](CC(N)=O)NC(=O)[C@H](CCSC)NC(=O)[C@H](NC(=O)[C@H](Cc1c[nH]c2ccccc12)NC(=O)CNC(=O)[C@H](CO)NC(=O)[C@H](Cc1ccc(O)cc1)NC(=O)[C@H](CCC(=O)O)NC(=O)[C@H](CC(N)=O)NC(=O)[C@H](CCSC)NC(=O)[C@@H](Cc1c[nH]c2ccccc12)NC(=O)[C@H](CO)NC(=O)[C@@H](CC(C)C)NC(=O)[C@H](CC(N)=O)NC(=O)[C@@H](CCSC)NC(=O)[C@H](CCC(=O)O)NC(=O)CNC(=O)[C@H](CCCNC(=N)N)NC(C)=O)[C@H](C)O)C(=O)NCC(=O)N[C@@H](CCCNC(=N)N)C(N)=O` [AP90] (Ac-RGE[dM]N[dL]S[dW]MNEYSGW[dT]M[dN]L[dK]MGR-NH2), in data set [1], the “extracellular PSM fibril deposits by TEM” value is listed as “amyloid fibrils could not be found; also recorded: no extracellular fibril deposits were observed; also recorded: no amyloid fibrils were visible”. Moreover, the “binding of PSMα1 samples to immobilized AP90” value in [2] was “more of the oligomer sample bound to the column than fresh or fibrillar material”. Further, the “effect on amyloid fibril formation (ThT), in words” value was “significant reduction in amyloid fibril formation” in data set [3] (80 μM peptide, 37 °C, effect particularly for the MN8 clinical isolate) and “significant reduction in amyloid fibril formation” in [9]. Besides, the “dose-response of biofilm amyloid content (ThT), in words” value in data set [3] (increasing concentrations of AP90 in culture medium) was “fibril formation decreased in a dose-dependent manner; also recorded: significant decrease in EM amyloid content as the concentration of AP90 is increased”. Further, the “secondary structure by CD, FTIR and 2D NMR” value in data set [4] is given as “does not adopt conventional secondary structure”. In addition, the “inhibition of PSMα1 amyloid formation” value in [5] is on record as 81 ± 5%. Also, in data set [6], the “reduction in biofilm (Crystal Violet)” value is listed as 54%. Further, in data set [7] (30 μM PSMα1, 1:4 PSMα1:inhibitor, ThT 22 μM, SEM of 3–6 replicates, vs peptide-free control), the “inhibition of PSMα1 fibril formation” value is listed as 73 ± 11%. In addition, the “effect on PSMα1 fibril formation, in words” value in [7] (30 μM PSMα1, 1:4 PSMα1:peptide) is “inhibited fibril formation to nearly the same extent as in water; also recorded: inhibition by AP90 persisted”. Moreover, the “CD spectrum (secondary structure)” value in [8] is reported as “featureless spectrum, except for negative ellipticity in the so-called random coil region around 195–200 nm”. Also, in data set [9] (LB Lennox, ThT 22 μM, ex 438 / em 495 nm, vs peptide-free control, experiments in triplicate), the “reduction of amyloid fibril formation (ThT)” value is given as ~ 30%. In data set [10], the “binding preference by KD, in words” value is “preferential binding between AP90 and α-sheet-rich PSMα1 (~48 h)”.
